According to ChEMBL document CHEMBL5113453, “Design, synthesis, and biological evaluation of a new series of pyrazole derivatives: Discovery of potent and selective JNK3 kinase inhibitors” (Bioorg Med Chem, 2022):

Key:
786-0 = assay: Antiproliferative activity against human 786-0 cells measured after 48 hrs by SRB assay; assay type: functional, cell-based
[1] = molecular target: T1, Mitogen-activated protein kinase 10 (Homo sapiens, UniProt P53779); assay: Inhibition of JNK3 (unknown origin)
CAKI-1 = assay: Antiproliferative activity against human CAKI-1 cells measured after 48 hrs by SRB assay; assay type: functional, cell-based
NCI-H226 = assay: Antiproliferative activity against human NCI-H226 cells measured after 48 hrs by SRB assay; assay type: functional, cell-based
SNB-75 = assay: Antiproliferative activity against human SNB-75 cells measured after 48 hrs by SRB assay; assay type: functional, cell-based
SW-620 = assay: Antiproliferative activity against human SW-620 cells measured after 48 hrs by SRB assay; assay type: functional, cell-based
SK-OV-3 = assay: Antiproliferative activity against human SK-OV-3 cells measured after 48 hrs by SRB assay; assay type: functional, cell-based
NCI-H522 = assay: Antiproliferative activity against human NCI-H522 cells measured after 48 hrs by SRB assay; assay type: functional, cell-based
SNB-19 = assay: Antiproliferative activity against human SNB-19 cells measured after 48 hrs by SRB assay; assay type: functional, cell-based
M14 = assay: Antiproliferative activity against human M14 cells measured after 48 hrs by SRB assay; assay type: functional, cell-based
Malme-3M = assay: Antiproliferative activity against human Malme-3M cells measured after 48 hrs by SRB assay; assay type: functional, cell-based
SF-268 = assay: Antiproliferative activity against human SF-268 cells measured after 48 hrs by SRB assay; assay type: functional, cell-based
OVCAR-5 = assay: Antiproliferative activity against human OVCAR-5 cells measured after 48 hrs by SRB assay; assay type: functional, cell-based
A498 = assay: Antiproliferative activity against human A498 cells measured after 48 hrs by SRB assay; assay type: functional, cell-based
KM12 = assay: Antiproliferative activity against human KM12 cells measured after 48 hrs by SRB assay; assay type: functional, cell-based
SK-MEL-28 = assay: Antiproliferative activity against human SK-MEL-28 cells measured after 48 hrs by SRB assay; assay type: functional, cell-based
K562 = assay: Antiproliferative activity against human K562 cells measured after 48 hrs by SRB assay; assay type: functional, cell-based
A549 = assay: Antiproliferative activity against human A549 cells measured after 48 hrs by SRB assay; assay type: functional, cell-based
BT-549 = assay: Antiproliferative activity against human BT-549 cells measured after 48 hrs by SRB assay; assay type: functional, cell-based
PC-3 = assay: Antiproliferative activity against human PC-3 cells measured after 48 hrs by SRB assay; assay type: functional, cell-based
MOLT-4 = assay: Antiproliferative activity against human MOLT-4 cells measured after 48 hrs by SRB assay; assay type: functional, cell-based
UACC-62 = assay: Antiproliferative activity against human UACC-62 cells measured after 48 hrs by SRB assay; assay type: functional, cell-based
RXF 393 = assay: Antiproliferative activity against human RXF 393 cells measured after 48 hrs by SRB assay; assay type: functional, cell-based
SN12C = assay: Antiproliferative activity against human SN12C cells measured after 48 hrs by SRB assay; assay type: functional, cell-based
NCI/ADR-RES = assay: Antiproliferative activity against human NCI-ADR-RES cells measured after 48 hrs by SRB assay; assay type: functional, cell-based
HL-60(TB) = assay: Antiproliferative activity against human HL-60(TB) cells measured after 48 hrs by SRB assay; assay type: functional, cell-based
OVCAR-8 = assay: Antiproliferative activity against human OVCAR-8 cells measured after 48 hrs by SRB assay; assay type: functional, cell-based
EKVX = assay: Antiproliferative activity against human EKVX cells measured after 48 hrs by SRB assay; assay type: functional, cell-based
RPMI-8226 = assay: Antiproliferative activity against human RPMI-8226 cells measured after 48 hrs by SRB assay; assay type: functional, cell-based
SR = assay: Antiproliferative activity against human SR cells measured after 48 hrs by SRB assay; assay type: functional, cell-based
[2] = molecular target: T1, Mitogen-activated protein kinase 10; assay: Inhibition of JNK3 (unknown origin) at 1 uM relative to control
OVCAR-3 = assay: Antiproliferative activity against human OVCAR-3 cells measured after 48 hrs by SRB assay; assay type: functional, cell-based
OVCAR-4 = assay: Antiproliferative activity against human OVCAR-4 cells measured after 48 hrs by SRB assay; assay type: functional, cell-based
WI-38 = assay: Antiproliferative activity against human WI-38 cells measured by MTT assay; assay type: functional, cell-based
MDA-MB-468 = assay: Antiproliferative activity against human MDA-MB-468 cells measured after 48 hrs by SRB assay; assay type: functional, cell-based
ACHN = assay: Antiproliferative activity against human ACHN cells measured after 48 hrs by SRB assay; assay type: functional, cell-based
NCI-H322M = assay: Antiproliferative activity against human NCI-H322M cells measured after 48 hrs by SRB assay; assay type: functional, cell-based
HCT-15 = assay: Antiproliferative activity against human HCT-15 cells measured after 48 hrs by SRB assay; assay type: functional, cell-based
DU-145 = assay: Antiproliferative activity against human DU-145 cells measured after 48 hrs by SRB assay; assay type: functional, cell-based
HCT-116 = assay: Antiproliferative activity against human HCT-116 cells measured after 48 hrs by SRB assay; assay type: functional, cell-based

T1 sequence (P53779 whole entry): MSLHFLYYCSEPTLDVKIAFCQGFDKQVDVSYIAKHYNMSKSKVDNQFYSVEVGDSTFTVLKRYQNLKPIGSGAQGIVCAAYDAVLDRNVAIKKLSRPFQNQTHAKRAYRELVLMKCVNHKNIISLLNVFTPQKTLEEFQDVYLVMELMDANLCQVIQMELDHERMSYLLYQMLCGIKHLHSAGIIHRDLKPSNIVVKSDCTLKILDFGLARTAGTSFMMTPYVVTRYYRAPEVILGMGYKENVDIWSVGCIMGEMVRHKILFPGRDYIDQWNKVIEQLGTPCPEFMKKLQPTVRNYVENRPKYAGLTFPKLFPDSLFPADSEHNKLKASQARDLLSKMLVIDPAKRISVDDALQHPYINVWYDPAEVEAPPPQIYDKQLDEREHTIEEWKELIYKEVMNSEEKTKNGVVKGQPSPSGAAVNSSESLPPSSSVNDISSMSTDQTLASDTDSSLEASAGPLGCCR

In the case of `COc1cccc(-c2nn(-c3ccccc3)cc2-c2ccnc(NCCCNC(=O)Nc3ccc(F)cc3)c2)c1`, the IC50 (786-0; 786-0, 48 h) is reported as 9.34 µM, the TGI (786-0; 786-0, time 48 hrs) is reported as greater than 37 µM and the IC50 [1] is reported as greater than 1 µM. It also gave an IC50 (CAKI-1; CAKI-1, 48 h) of 8.63 µM, a TGI (CAKI-1; CAKI-1, time 48 hrs) greater than 37 µM and an IC50 (NCI-H226; NCI-H226, 48 h) of 10.8 µM. It also gave a TGI (NCI-H226; NCI-H226, time 48 hrs) greater than 37 µM, an IC50 (SNB-75; SNB-75, 48 h) of 4.18 µM and a TGI (SNB-75; SNB-75, time 48 hrs) of 22.7 µM. It also gave an IC50 (SW-620; SW-620, 48 h) of 8.02 µM, a TGI (SW-620; SW-620, time 48 hrs) greater than 37 µM and an IC50 (SK-OV-3; SK-OV-3, 48 h) of 10.8 µM. For the same compound, the TGI (SK-OV-3; SK-OV-3, time 48 hrs) was greater than 37 µM, the IC50 (NCI-H522; NCI-H522, 48 h) was 5.07 µM and the TGI (NCI-H522; NCI-H522, time 48 hrs) was 12 µM. It also gave an IC50 (SNB-19; SNB-19, 48 h) of 12.1 µM, a TGI (SNB-19; SNB-19, time 48 hrs) greater than 37 µM and an IC50 (M14; M14, 48 h) of 6.71 µM. The TGI (M14; M14, time 48 hrs) was 19 µM, the IC50 (Malme-3M; 48 h) was 5.45 µM and the TGI (Malme-3M; time 48 hrs) was 10.6 µM. The IC50 (SF-268; SF-268, 48 h) was 7.08 µM, the TGI (SF-268; SF-268, time 48 hrs) was 30 µM and the IC50 (OVCAR-5; OVCAR-5, 48 h) was 11.2 µM. The TGI (OVCAR-5; OVCAR-5, time 48 hrs) was greater than 37 µM, the IC50 (A498; A498, 48 h) was 7.37 µM and the TGI (A498; A498, time 48 hrs) was 31.4 µM. For the same compound, the IC50 (KM12; KM12, 48 h) was 10.5 µM, the TGI (KM12; KM12, time 48 hrs) was greater than 37 µM and the IC50 (SK-MEL-28; SK-MEL-28, 48 h) was 6.57 µM. The TGI (SK-MEL-28; SK-MEL-28, time 48 hrs) was 15.5 µM, the IC50 (K562; K562, 48 h) was 2.96 µM and the TGI (K562; K562, time 48 hrs) was greater than 37 µM. For the same compound, the IC50 (A549; A549, 48 h) was 9.95 µM, the TGI (A549; A549, time 48 hrs) was greater than 37 µM and the IC50 (BT-549; BT-549, 48 h) was 6.24 µM. For the same compound, the TGI (BT-549; BT-549, time 48 hrs) was 20.3 µM, the IC50 (PC-3; PC-3, 48 h) was 6.23 µM and the TGI (PC-3; PC-3, time 48 hrs) was greater than 37 µM. It also gave an IC50 (MOLT-4; MOLT-4, 48 h) of 3.94 µM, a TGI (MOLT-4; MOLT-4, time 48 hrs) of 19 µM and an IC50 (UACC-62; UACC-62, 48 h) of 7.57 µM. The TGI (UACC-62; UACC-62, time 48 hrs) was 24.2 µM, the IC50 (RXF 393; RXF 393, 48 h) was 6.02 µM and the TGI (RXF 393; RXF 393, time 48 hrs) was 28.6 µM. It also gave an IC50 (SN12C; 48 h) of 9.83 µM, a TGI (SN12C; time 48 hrs) greater than 37 µM and an IC50 (NCI/ADR-RES; 48 h) of 7.29 µM. For the same compound, the TGI (NCI/ADR-RES; time 48 hrs) was 25.4 µM, the IC50 (HL-60(TB); HL-60, 48 h) was 3.77 µM and the TGI (HL-60(TB); HL-60, time 48 hrs) was 13.7 µM. It also gave an IC50 (OVCAR-8; OVCAR-8, 48 h) of 10.6 µM, a TGI (OVCAR-8; OVCAR-8, time 48 hrs) greater than 37 µM and an IC50 (EKVX; 48 h) of 9.63 µM. The TGI (EKVX; time 48 hrs) was greater than 37 µM, the IC50 (RPMI-8226; RPMI-8226, 48 h) was 5.96 µM and the TGI (RPMI-8226; RPMI-8226, time 48 hrs) was 24.6 µM. For the same compound, the IC50 (SR; 48 h) was 7.7 µM, the TGI (SR; time 48 hrs) was greater than 37 µM and the inhibition [2] was 3%. The IC50 (OVCAR-3; OVCAR-3, 48 h) was 6.18 µM, the TGI (OVCAR-3; OVCAR-3, time 48 hrs) was greater than 37 µM and the IC50 (OVCAR-4; OVCAR-4, 48 h) was 10.5 µM. For the same compound, the TGI (OVCAR-4; OVCAR-4, time 48 hrs) was greater than 37 µM, the IC50 (WI-38) was greater than 20 µM and the IC50 (MDA-MB-468; MDA-MB-468, 48 h) was 4.83 µM. It also gave a TGI (MDA-MB-468; MDA-MB-468, time 48 hrs) of 13 µM, an IC50 (ACHN; 48 h) of 10.6 µM and a TGI (ACHN; time 48 hrs) greater than 37 µM. It also gave an IC50 (NCI-H322M; 48 h) of 9.58 µM, a TGI (NCI-H322M; time 48 hrs) greater than 37 µM and an IC50 (HCT-15; HCT-15, 48 h) of 7.64 µM. The TGI (HCT-15; HCT-15, time 48 hrs) was greater than 37 µM, the IC50 (DU-145; DU-145, 48 h) was 14 µM and the TGI (DU-145; DU-145, time 48 hrs) was greater than 37 µM. It also gave an IC50 (HCT-116; HCT-116, 48 h) of 5.7 µM and a TGI (HCT-116; HCT-116, time 48 hrs) of 17 µM.
